Consider 2 compounds from patent US7728015B2, “Compositions for weight management” (Mor Research Applications Ltd., priority 2004, dated 2010).

For series [1] the following is noted: in vivo, cited from earlier work.
For series [2] the following is noted: rats, cited from earlier work.
The conditions of series [3]: pygmy goats, high doses intraperitoneally; cited from earlier work.
Series [4] can be described thus: Randomized placebo controlled double-blinded study of oral betahistine on food intake, caloric intake and weight in obese persons. It is filed as in vivo, human. The method, then:
Weight, caloric intake (24 hour recall) and appetite during the day (VAS, Visual Analogue Score) were obtained on day 0, 14 and 28 of the study. Subjects were instructed to eat according to their appetite without limitations. Statistical significance was assessed with t-test. BMI stands for body mass index.

A short description of series [5]: Blood metabolite levels of a healthy overweight person before and after one month of betahistine. More on the design: Total cholesterol / HDL-cholesterol / LDL-cholesterol / Triglycerides: unit not given here. It is filed as in vivo, human.
The next series has as its target H3-receptor (Homo sapiens, UniProt Q9Y5N1). Conditions: receptor binding studies; cited from earlier work.
The conditions of series [6]: cited from earlier work.
For series [7] the following is noted: rats, cited from earlier work. The source holds these as a separate data set.
The mark [8] stands for this setting: betahistine 16 mg orally twice a day, FIG. 5.
Setting [9] is: Day 30, betahistine 16 mg twice daily, blood test.

Where two headings read alike, the source gives them in different places.

Chain of H3-receptor (Q9Y5N1 whole entry): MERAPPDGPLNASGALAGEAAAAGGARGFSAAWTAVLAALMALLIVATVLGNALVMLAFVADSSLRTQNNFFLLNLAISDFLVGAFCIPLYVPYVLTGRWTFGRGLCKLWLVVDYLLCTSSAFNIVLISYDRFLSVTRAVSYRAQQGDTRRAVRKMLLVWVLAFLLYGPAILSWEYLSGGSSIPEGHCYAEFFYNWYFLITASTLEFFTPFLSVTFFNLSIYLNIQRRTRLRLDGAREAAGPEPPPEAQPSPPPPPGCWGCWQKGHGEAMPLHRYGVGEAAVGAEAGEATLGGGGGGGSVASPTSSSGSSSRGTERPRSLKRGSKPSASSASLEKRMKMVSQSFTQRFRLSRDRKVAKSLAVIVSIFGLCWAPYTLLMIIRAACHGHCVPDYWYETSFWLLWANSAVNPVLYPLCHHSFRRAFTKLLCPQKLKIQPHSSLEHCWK

`Cc1nc(N)nc(N)c1-c1ccc(Cl)c(Cl)c1` [metoprine]: the half-life (in general, the time needed for the level to fall by half in the phase considered) in series [1] is 216 h. The “intakes of carbohydrates or protein” value in series [2] (FIG. 2) is given as “no marked effect”. For the same compound, in series [2] (intraperitoneal injection), the “daily energy intake and ingestion of fat” value is “suppressed daily energy intake and ingestion of fat”.
Turning to `CNCCc1ccccn1` [betahistine, 2-[2-(methylamino)ethyl]pyridine], in series [3], the food intake entry is “decreased food intake” and the water intake result is given as “increased water intake”. In series [1], the half-life result was “about 3.5 hours”. In addition, the half-life in series [1] (listed as Betahistine) is 3.5 h. Moreover, the “adverse event reported by a subject” value in series [4] (Subject No. 5, day 5, betahistine 16 mg twice a day) is recorded as “food aversion that did not allow them to consume any food”. Further, in series [4] (setting [8]), the “reduction in carbohydrate consumption” value stood at 6%, the “reduction in fat consumption” value was found to be 49% and the “reduction in protein consumption” value came to 35%. Also, in series [4] (betahistine 16 mg orally twice a day, day 14 of treatment), the total caloric intake is recorded as 80 percents of the pre-treatment level. Also, in series [4] (betahistine 16 mg orally twice a day, day 28 of treatment), the total caloric intake was 68 percents of the pre-treatment level. For the same compound, in series [4] (treatment group, 28 day study, no food restriction), the “subjects who lost more than 1 kg during the study period” value is recorded as “Four out of seven”. In addition, in series [5] (setting [9]), the Fructoseamine worked out at 202, the HDL-cholesterol worked out at 58, the LDL-cholesterol stood at 84 and the Total cholesterol was found to be 155. In series [5] (setting [9]), the Triglycerides stood at 62. In addition, in series [5] (Day 30 vs Day 0), the “Fructoseamine Change” value is reported as “+4%”, the “HDL-cholesterol Change” value was “+7%”, the “LDL-cholesterol Change” value was −15% and the “Total cholesterol Change” value is reported as −7%. In addition, the “Triglycerides Change” value in series [5] (Day 30 vs Day 0) was −10%. For the same compound, the H3-receptor activity result at H3-receptor was “potent H3-receptor antagonist”. In series [6] (betahistine and olanzapine for 6 weeks, three patients), the “weight gain from week 2 to the end of the study” value was “no weight gain was observed”. The “mean weight gain compared with olanzapine/placebo-treated patients” value in series [6] (betahistine/olanzapine-treated patients, 6 weeks) was “lower”. The food intake result in series [7] (given intragastrically) is given as “this effect was not seen”. Also, the food intake result in series [7] (given intraperitoneally) was “decreased food intake”.
